Assay results as given in US10669274B2, “Azaphenalene-3-one derivative, preparation method therefor, and application therof” (SUZHOU KANGRUN PHARMACEUTICALS INC., priority 2017, dated 2020).

Molecular target: T1, PARP1 (Homo sapiens, UniProt P09874)
T1 construct: purchased Trevigen
Assay: Determination of PARP1 inhibitory activity (Universal PARP colorimetric assay kit, Trevigen)
Type: biochemical
Conditions: for IC50: PARP1, OD at 450 nm, Logit method; for Inhibition (%): footnote: inhibition rate below 500 nM unless indicating otherwise
Experimental: Determination of PARP1 inhibitory activity
Method for determining PARP1 inhibitory activity:
(1) adding 50 μL of 1X PARP Buffer to each well, incubating for 30 min at room temperature, and drying;
(3) adding 25 μL of 1X PARP1 cocktail to each well and incubating for 60 min at room temperature;

T1 sequence (P09874 whole entry): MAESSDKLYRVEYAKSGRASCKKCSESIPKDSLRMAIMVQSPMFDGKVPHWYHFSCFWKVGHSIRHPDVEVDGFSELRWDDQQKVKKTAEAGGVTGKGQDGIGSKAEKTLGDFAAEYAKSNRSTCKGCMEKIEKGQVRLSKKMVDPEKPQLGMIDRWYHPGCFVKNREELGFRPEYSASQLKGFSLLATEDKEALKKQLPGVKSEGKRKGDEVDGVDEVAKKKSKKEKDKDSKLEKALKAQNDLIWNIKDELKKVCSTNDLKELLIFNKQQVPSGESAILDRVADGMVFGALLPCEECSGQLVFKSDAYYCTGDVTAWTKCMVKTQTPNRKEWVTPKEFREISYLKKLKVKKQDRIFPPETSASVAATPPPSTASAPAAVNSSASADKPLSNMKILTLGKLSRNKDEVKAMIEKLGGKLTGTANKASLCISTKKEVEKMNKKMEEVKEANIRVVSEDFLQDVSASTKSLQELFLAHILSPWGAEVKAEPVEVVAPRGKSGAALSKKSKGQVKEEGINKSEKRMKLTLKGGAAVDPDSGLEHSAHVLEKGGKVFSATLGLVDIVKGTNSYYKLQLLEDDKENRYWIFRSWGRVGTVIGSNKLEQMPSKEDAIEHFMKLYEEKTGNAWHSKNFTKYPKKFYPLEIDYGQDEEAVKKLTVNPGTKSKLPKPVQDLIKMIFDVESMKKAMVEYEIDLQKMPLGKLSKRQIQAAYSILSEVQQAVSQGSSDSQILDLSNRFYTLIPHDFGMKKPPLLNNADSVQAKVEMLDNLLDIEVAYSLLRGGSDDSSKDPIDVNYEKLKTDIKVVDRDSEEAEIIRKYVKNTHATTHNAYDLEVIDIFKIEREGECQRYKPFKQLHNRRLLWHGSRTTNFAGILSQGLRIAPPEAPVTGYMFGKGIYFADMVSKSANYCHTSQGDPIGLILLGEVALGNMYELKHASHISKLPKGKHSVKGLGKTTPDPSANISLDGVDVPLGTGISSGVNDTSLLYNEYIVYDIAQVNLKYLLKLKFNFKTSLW

| Structure (SMILES) | inhibition at 1 µM (PARP1 enzyme inhibition rate, 1 μM) [%] | inhibition at 10 µM (PARP1 enzyme inhibition rate, 10 μM) [%] | IC50 [µM] | Inhibition (%) (PARP1 enzyme inhibition rate) |
| --- | --- | --- | --- | --- |
| NC(=O)c1ccc(I)c([N+](=O)[O-])c1 [BSI-201, reference compound] | 23.6 |  |  |  |
| NC(=O)c1cccc(N)c1 [Compound 3-AB, reference compound] |  | 16.9 |  |  |
| CC1=CN2C(=Nc3cccc4c(=O)[nH]nc2c34)C=C1 [Compound 9] |  |  | 0.0819 | 87.58 |
| O=c1[nH]nc2c3c(cccc13)N=C1C=CC(CNCC(F)(F)F)=CN12 [Compound A2] |  |  | 0.346 | 76.29 |
| CCN(CC)CC1=CN2C(=Nc3cccc4c(=O)[nH]nc2c34)C=C1 [Compound A3] |  |  | 0.137 | 84.77 |
| O=c1[nH]nc2c3c(cccc13)N=C1C=CC(CN3CCCC3)=CN12 [Compound A4] |  |  | 0.103 | 84.77 |
| O=c1[nH]nc2c3c(cccc13)N=C1C=CC(Cn3ccnc3)=CN12 [Compound A5] |  |  | 0.164 | 95.72 |
| O=c1[nH]nc2c3c(cccc13)N=C1C=CC(CN3CCCCC3)=CN12 [Compound A6] |  |  | 0.294 | 91.67 |
| O=c1[nH]nc2c3c(cccc13)N=C1C=CC(CN3CCOCC3)=CN12 [Compound A7] |  |  | 0.194 | 73.37 |
| CNC1CCN(CC2=CN3C(=Nc4cccc5c(=O)[nH]nc3c45)C=C2)CC1 [Compound A8] |  |  |  | 79.97 |
| CN(C)C1CCN(CC2=CN3C(=Nc4cccc5c(=O)[nH]nc3c45)C=C2)CC1 [Compound A9] |  |  |  | 82.15 |
| CN1CCC(N(C)CC2=CN3C(=Nc4cccc5c(=O)[nH]nc3c45)C=C2)CC1 [Compound A10] |  |  | 0.119 | 88.97 |
| CN(CC1=CN2C(=Nc3cccc4c(=O)[nH]nc2c34)C=C1)C1CCN(c2ccccc2)CC1 [Compound A11] |  |  | 0.161 | 92.42 |
| CN(CC1=CN2C(=Nc3cccc4c(=O)[nH]nc2c34)C=C1)C1CCN(Cc2ccccc2)CC1 [Compound A12] |  |  |  | 89.42 |
| O=c1[nH]nc2c3c(cccc13)N=C1C=CC(CN3CCc4ccc(F)cc4C3)=CN12 [Compound A13] |  |  |  | 79.67 |
